Earlier results in patent publication US20140088145A1 (Teva Pharmaceutical Industries, Ltd., priority 2012, published 2014).

Assays:
[1] = tested on: Huntington's disease patients; conditions: twice-daily doses of 45 mg over 12 weeks
[2] = tested on: Huntington's disease patients; conditions: 45 mg daily or 90 mg daily for 6 months
[3] = in vivo

Compound: CCCN1CCC(c2cccc(S(C)(=O)=O)c2)CC1 [pridopidine, 4-[3-(methylsulfonyl)phenyl]-1-propyl-piperidine]
- effect on total motor function [1]: significant effect on total motor function
- tertiary endpoint UHDRS-TMS (changes in motor function) and individual items within the mMS (gait, dysarthria) [2]: statistically significant effect of treatment
- symptomatic relief incl. hand movements, gait and balance (patients with HD): significant symptomatic relief

Compound: C#CCN[C@@H]1CCc2ccccc21 [rasagiline, R(+)-N-propargyl-l-aminoindan]
- absolute bioavailability [3]: about 36%
